Our source for the IC50, inhibition and Activity values is ChEMBL document CHEMBL5096221, “Discovery of a Highly Potent and Orally Bioavailable STAT3 Dual Phosphorylation Inhibitor for Pancreatic Cancer Treatment” (J Med Chem, 2022).

Series [1] addresses Tyrosine-protein kinase JAK1 (Homo sapiens, UniProt P23458). Put plainly: Inhibition of JAK1 (unknown origin).
Another series concerns BXPC-3. Put plainly: Inhibition of mitochondrial respiration in human BXPC-3 cells assessed as reduction in maximal respiration rate at 1 to 30 nM incubated for 1 hr by seahorse XF96 flux analyzer. The following applies: dose 1-30 nM, DDE = dose-dependent effect. Format: functional, cell-based.
Series [2] in a line: Toxicity in BALB/c mouse xenografted with human BXPC-3 cells assessed as effect on spleen at 10 mg/kg,po administrated once daily for 8 weeks by H and E staining based microscopic analysis. Format: organism-based. The following applies: in vivo, 1344 h. A general note: In xenograft studies the graft and the host belong to different species.
The target of a further series is Cytochrome P450 2C19 (Homo sapiens, UniProt P33261). Put plainly: Inhibition of CYP2C19 in human liver microsomes. Format: ADME, Microsome. A general note: Microsomes from liver hold many membrane-bound enzymes, among them those of drug oxidation.
A short description of series [3]: Inhibition of ATP production in human BXPC-3 cells incubated for 20 to 24 hrs by ATP assay kit method. Format: functional, cell-based.
The target of series [4] is Signal transducer and activator of transcription 3 (Homo sapiens, UniProt P40763). Put plainly: Inhibition of STAT3 in human Capan-2 cells assessed as inhibition of STAT3 phosphorylation at Tyr 705 at 10 nM incubated for 22 to 24 hrs by western blot analysis. The format is cell-based. The note with it: time 22-24 hrs. (Immunoblotting shows a protein as a band on a membrane.)

Calls of active or inactive are those of the source. No cut-off for these calls is given here.

Sequence of Cytochrome P450 2C19 (P33261 whole entry): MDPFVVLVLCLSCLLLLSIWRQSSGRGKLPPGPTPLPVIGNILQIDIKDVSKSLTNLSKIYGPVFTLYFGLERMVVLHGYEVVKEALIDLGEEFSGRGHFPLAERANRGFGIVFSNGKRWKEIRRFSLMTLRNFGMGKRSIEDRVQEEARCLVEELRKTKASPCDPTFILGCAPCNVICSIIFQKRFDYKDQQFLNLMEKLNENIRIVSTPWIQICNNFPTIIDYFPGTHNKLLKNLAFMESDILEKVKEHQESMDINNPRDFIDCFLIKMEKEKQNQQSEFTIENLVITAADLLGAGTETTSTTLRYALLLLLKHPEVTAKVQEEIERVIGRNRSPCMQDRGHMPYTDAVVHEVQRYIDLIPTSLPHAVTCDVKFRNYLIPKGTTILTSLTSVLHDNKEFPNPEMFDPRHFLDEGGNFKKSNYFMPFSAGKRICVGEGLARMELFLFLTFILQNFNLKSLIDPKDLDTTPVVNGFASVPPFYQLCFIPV
Sequence of Tyrosine-protein kinase JAK1 (P23458 whole entry): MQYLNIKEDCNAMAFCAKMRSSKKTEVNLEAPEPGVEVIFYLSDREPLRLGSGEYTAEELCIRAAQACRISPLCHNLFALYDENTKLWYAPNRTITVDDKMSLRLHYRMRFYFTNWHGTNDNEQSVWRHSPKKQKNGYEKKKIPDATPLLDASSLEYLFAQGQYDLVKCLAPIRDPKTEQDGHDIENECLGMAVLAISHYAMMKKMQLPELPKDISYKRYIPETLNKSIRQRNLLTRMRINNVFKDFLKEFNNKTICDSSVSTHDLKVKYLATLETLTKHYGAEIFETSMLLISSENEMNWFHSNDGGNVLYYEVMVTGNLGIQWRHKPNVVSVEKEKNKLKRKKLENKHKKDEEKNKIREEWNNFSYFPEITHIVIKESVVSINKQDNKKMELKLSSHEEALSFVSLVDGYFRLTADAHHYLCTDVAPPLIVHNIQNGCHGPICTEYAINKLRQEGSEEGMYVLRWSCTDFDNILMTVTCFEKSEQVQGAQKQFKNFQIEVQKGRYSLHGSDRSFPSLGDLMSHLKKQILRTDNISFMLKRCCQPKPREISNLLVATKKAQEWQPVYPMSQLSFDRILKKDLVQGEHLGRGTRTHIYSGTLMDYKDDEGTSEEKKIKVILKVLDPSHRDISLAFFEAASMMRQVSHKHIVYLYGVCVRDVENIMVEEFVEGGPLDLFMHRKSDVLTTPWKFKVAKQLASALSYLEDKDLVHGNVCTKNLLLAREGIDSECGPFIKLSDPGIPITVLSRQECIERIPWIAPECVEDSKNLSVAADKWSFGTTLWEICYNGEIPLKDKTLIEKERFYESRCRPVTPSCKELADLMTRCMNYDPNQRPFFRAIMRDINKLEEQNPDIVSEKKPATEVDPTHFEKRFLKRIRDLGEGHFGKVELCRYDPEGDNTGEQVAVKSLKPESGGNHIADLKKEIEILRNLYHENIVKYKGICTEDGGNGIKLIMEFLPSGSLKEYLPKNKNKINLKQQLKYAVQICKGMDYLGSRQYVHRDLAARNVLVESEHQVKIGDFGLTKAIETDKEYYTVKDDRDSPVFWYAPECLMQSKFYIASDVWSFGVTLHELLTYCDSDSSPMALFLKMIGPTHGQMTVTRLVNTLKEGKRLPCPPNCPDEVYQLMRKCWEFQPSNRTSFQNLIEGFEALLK
Sequence of Signal transducer and activator of transcription 3 (P40763 whole entry): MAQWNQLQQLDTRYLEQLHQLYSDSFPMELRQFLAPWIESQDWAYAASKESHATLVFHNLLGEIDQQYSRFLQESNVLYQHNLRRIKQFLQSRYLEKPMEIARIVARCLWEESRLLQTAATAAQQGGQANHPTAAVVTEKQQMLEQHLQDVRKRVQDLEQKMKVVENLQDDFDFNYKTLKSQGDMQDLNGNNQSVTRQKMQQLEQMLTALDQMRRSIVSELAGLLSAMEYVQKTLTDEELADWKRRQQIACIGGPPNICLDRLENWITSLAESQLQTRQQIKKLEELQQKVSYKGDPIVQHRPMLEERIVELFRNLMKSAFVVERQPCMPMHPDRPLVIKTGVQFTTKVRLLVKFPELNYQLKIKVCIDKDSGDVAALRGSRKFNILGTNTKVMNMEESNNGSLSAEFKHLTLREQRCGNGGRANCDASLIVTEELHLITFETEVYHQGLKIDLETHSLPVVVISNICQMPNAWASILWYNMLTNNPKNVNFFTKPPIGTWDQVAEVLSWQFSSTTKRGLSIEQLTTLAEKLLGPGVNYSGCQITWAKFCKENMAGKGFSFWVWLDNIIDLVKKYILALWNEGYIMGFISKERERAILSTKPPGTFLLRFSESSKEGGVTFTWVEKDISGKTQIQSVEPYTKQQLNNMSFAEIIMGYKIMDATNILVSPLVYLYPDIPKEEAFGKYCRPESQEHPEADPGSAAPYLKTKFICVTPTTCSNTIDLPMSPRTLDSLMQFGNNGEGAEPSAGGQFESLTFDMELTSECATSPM

What is called IC50 is the concentration at which inhibition is half-maximal. A low value points to inhibition by little substance. Turning to `COc1ccc(-c2noc(-c3cnc(Oc4ccc5cc(C(=O)N6CCN(Cc7ccc(OCC(F)(F)F)cc7)CC6)n(C)c5c4)cn3)n2)cc1`, the values for the half-inhibitory concentration (IC50) (in series [1]; against Cytochrome P450 2C19; in series [3]) were > 10 µM, > 50 µM and 4.2 nM, respectively. Also, the inhibition result in the series on BXPC-3 is “Dde”. For the same molecule, the Activity result in series [2] is given as “Non-Toxic”. In addition, the inhibition entry in series [4] is “Active”.
